{"source": "patent US20140271892A1", "about": "“PHENYLEPHRINE RESINATE PARTICLES HAVING GOOD AUC” (McNeil-PPC, Inc., priority 2013, published 2014)", "origin": "cited, not measured here", "key": {"[1]": {"conditions": "30 mg dose administered orally over eight hours"}, "[2]": {"conditions": "therapeutic dose"}}, "data": [{"smiles": "CNC[C@H](O)c1cccc(O)c1", "note": "[phenylephrine, (R)-1-(3-hydroxyphenyl)-2-methylaminoethanol]", "values": [{"measurement": "metabolized to m-hydroxy-phenylglycol-sulfate", "setting": "[1]", "value": "6 % of the dose"}, {"measurement": "metabolized to m-hydroxymandelic acid", "setting": "[1]", "value": "30 % of the dose"}, {"measurement": "metabolized to phenylephrine-glucuronide", "setting": "[1]", "value": "12 % of the dose"}, {"measurement": "metabolized to phenylephrine-sulfate", "setting": "[1]", "value": "47 % of the dose"}]}, {"smiles": "CC(=O)Nc1ccc(O)cc1", "note": "[acetaminophen, Acetaminophen]", "values": [{"measurement": "excreted unchanged in the urine", "setting": "[2]", "value": "Less than 9 % of a therapeutic dose"}]}]}
